The target of this experiment is human vasopressin V1a receptor subtype (Homo sapiens, UniProt P37288). As to the kind of experiment: Vasopressin binding in CHO cell membranes expressing human vasopressin V1a subtype receptors. To be noted: [3H]Manning ligand; for IC50: value in parentheses; for V1a % inhibition at 100 nM / inhibition at 0.1 µM: 100 nM. The text has this:
Vasopressin Binding in Chinese Hamster Ovary Cell Membranes Expressing Human Vasopressin V1a Subtype Receptors
Chinese hamster ovary cells (CHO cells) stably transfected with the human vasopressin V1a subtype receptors were either obtained from Biosignal Inc., 1744 rue Williams, Montreal, Quebec, Canada or obtained from M. Thibonnier, Case Western Reserve University School of Medicine, Cleveland, Ohio. A. Passaging and Amplification of Cells: CHO cells transfected with the human vasopressin V1a subtype receptors obtained from M. Thibonnier (pZeoSV vector) are allowed to grow to confluency (approx. >90%) in T-150 flasks under sterile conditions, in a cell culture medium of F-12 Nutrient Mixture (HAM) with L-glutamine (Gibco Cat. # 11765-054) containing 15 mM HEPES (Gibco Cat. 15630-080), 1% antibiotic/antimycotic (add 5 mL 100×, Gibco Cat. 15240-062 per 500 mL F-12), 250 μg/mL Zeocin (add 1.25 mL of 100 mg/mL Invitrogen R-250-01 per 500 mL F-12) and 10% Fetal Bovine Serum (Qualified, heat inactivated, Gibco Cat. # 16140-063). The medium is removed by aspiration and the cells are washed with 10 mL of Hank's Balanced Salt solution (Gibco Cat. # 14175-095). The salt solution is removed by aspiration and the cells are trypsinized with 5 mL of trypsin-EDTA (0.05% trypsin, 0.53 mM EDTA-4Na, Gibco Cat. # 25300-070) for 1 min. The trypsin is removed by aspiration and the cells dislodged by tapping. Cell Culture medium (eg, 30 mL for 1:30 split) is immediately added and mixed well to inactivate trypsin. 1 mL of detached cells is added to new culture flasks containing fresh cell culture medium (eg, into 25 mL per T-150 flask), and mixed gently. The cells are incubated at 37° C. in 5% CO2. The medium is changed at 3 to 4 days interval (or as appropriate). The cells grow to confluency (approx. >75%–95%) within 7–8 days. All steps are done under sterile conditions. B. Membrane Preparation: The cells are washed twice gently with Hank's Balanced Salt solution (e.g,. use 10 mL per T-150 flask). The excess is removed and the cells are bathed for 15–30 min. in an enzyme-free Cell Dissociation Buffer (e.g. use 8 mL Hank's Based, Gibco Cat. # 13150-016 per T-150 flask) until the cells are loosened. The contents are transferred to centrifuge tubes (50 mL) kept in an ice bath. All subsequent steps are done at 4° C. The tubes are centrifuged at 300×g for 15 min (1380 rpm on SORVAL, Model RT6000D, using rotor for the 50 mL tubes). The supernatant is discarded and the cells suspended in homogeneizing buffer(10 mM Tris-HCl containing 0.25 M sucrose and 1 mM EDTA, pH 7.4) ensuring that the volume of the buffer is about ten times the volume of the cell pellet. The cells are pooled into a centrifuge tube (50 mL) and homogenized with Polytron at setting 6 for 10 sec. The homogenate is transferred into a Potter-Elvjehm homogenizer and homogenized with 3 strokes. The homogenate is centrifuged at 1500× g for 10 min at 4° C. (3100 rpm using SORVAL, model RT6000D, using the rotor for 50 mL tubes). The pellet is discarded. The supernatant is centrifuged at 100,000×g for 60 min. at 4° C. (Beckman L8-80M ultracentrifuge; spin at 37,500 rpm with rotor type 70 Ti for 50 mL tubes; 38,000 rpm with type 80Ti for 15 mL tubes; or 35,800 rpm with rotor type 45Ti). The supernantant is discarded and the pellet suspended in 3 to 4 mL of Tris buffer (50 mM TRIS-HCl, pH 7.4). The protein content is estimated by the Bradford or Lowry method. The volume of the membrane suspension is adjusted with the membrane buffer (50 mM Tris-HCl containing 0.1% BSA and 0.1 mM PMSF) to give 3.0 mg/mL (or as appropriate) of protein. The membranes are aliquoted and stored at −70° C. C. […]

Each structure is given as a SMILES string.

As usually defined, the IC50 is the concentration needed to halve the response being measured. One may read the inhibition as the drop in the measured response relative to a control, in per cent.

human vasopressin V1a receptor subtype, sequence (P37288 whole entry): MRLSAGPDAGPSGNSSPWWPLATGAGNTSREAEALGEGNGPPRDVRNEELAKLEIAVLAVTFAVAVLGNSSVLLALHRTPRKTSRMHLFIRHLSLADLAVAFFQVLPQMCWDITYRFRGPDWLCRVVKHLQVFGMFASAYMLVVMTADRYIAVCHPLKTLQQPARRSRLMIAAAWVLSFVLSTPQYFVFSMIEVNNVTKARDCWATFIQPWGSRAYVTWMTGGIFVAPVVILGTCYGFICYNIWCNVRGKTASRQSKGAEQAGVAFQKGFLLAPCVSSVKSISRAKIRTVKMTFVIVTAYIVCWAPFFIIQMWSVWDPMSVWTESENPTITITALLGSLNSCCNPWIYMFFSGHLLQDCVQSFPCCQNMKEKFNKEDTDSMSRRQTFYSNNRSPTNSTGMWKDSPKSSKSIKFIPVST

For the compound `CC(=O)c1ccc2n1Cc1ccccc1N(C(=O)c1ccc(C3CCCCC3)cc1)C2` [Example 6, 1-[10-(4-Cyclohexyl-benzoyl)-10,11-dihydro-5H-pyrrolo[2,1-c][1,4]benzodiazepin-3-yl]-ethanone], the IC50 was found to be 258 nM.

Consider `NNC(=O)c1ccc2n1Cc1ccccc1N(C(=O)c1ccc(C3CCCCC3)cc1)C2` [Example 8, 10-(4-Cyclohexy-benzoyl)-10,11-dihydro-5H-pyrrolo[2,1-c][1,4]benzodiazepine-3-carboxylic acid hydrazide], for which the IC50 came to 543 nM.

For `CC(=O)NNC(=O)c1ccc2n1Cc1ccccc1N(C(=O)c1ccc(C3CCCCC3)cc1)C2` [Example 11, N′-Acetyl-10-(4-cyclohexyl-benzoyl)-10,11-dihydro-5H-pyrrolo[2,1-c][1,4]benzodiazepine-3-carbonyl-hydrazide], the IC50 turned out to be 367 nM.

On to `Cc1ccccc1C(=O)NNC(=O)c1ccc2n1Cc1ccccc1N(C(=O)c1ccc(C3CCCCC3)cc1)C2` [Example 12, 10-(4-Cyclohexyl-benzoyl)-N′-(2-methylbenzoyl)-10,11-dihydro-5H-pyrrolo[2,1-c][1,4]benzodiazepine-3-carbonyl-hydrazide], for which the “V1a % inhibition at 100 nM” value is on record as 31%.

In the case of `O=C(NNC(=O)C1CC1)c1ccc2n1Cc1ccccc1N(C(=O)c1ccc(C3CCCCC3)cc1)C2` [Example 13, 10-(4-Cyclohexyl-benzoyl)-N′-(cyclopropylcarbonyl)-10,11-dihydro-5H-pyrrolo[2,1-c][1,4]benzodiazepine-3-carbonyl-hydrazide], the “V1a % inhibition at 100 nM” value turned out to be 35%.

For `Cc1cccc(C(=O)NNC(=O)c2ccc3n2Cc2ccccc2N(C(=O)c2ccc(C4CCCCC4)cc2)C3)c1` [Example 14, 10-(4-Cyclohexyl-benzoyl)-N′-(3-methyl-benzoyl)-10,11-dihydro-5H-pyrrolo[2,1-c][1,4]benzodiazepine-3-carbonyl-hydrazide], the “V1a % inhibition at 100 nM” value amounted to 23%.

For `O=C(NNC(=O)c1ccc2n1Cc1ccccc1N(C(=O)c1ccc(C3CCCCC3)cc1)C2)Nc1ccccc1` [Example 15, 2-{[10-(4-Cyclohexyl-benzoyl)-10,11-dihydro-5H-pyrrolo[2,1-c][1,4]benzodiazepin-3-yl]carbonyl}-N-phenyl-1-hydrazinecarboxamide], the inhibition at 0.1 µM is -4%.

Turning to `CN(N)C(=O)c1ccc2n1Cc1ccccc1N(C(=O)c1ccc(C3CCCCC3)cc1)C2` [Example 21, 10-(4-Cyclohexyl-benzoyl)-N-methyl-10,11-dihydro-5H-pyrrolo[2,1-c][1,4]benzodiazepine-3-carboxylic acid hydrazide], the inhibition at 0.1 µM came out at 21%.

Turning to `O=C(O)c1ccc2n1Cc1ccccc1N(C(=O)c1ccc(C3CCCCC3)cc1)C2` [Example 22, 10-(4-Cyclohexyl-benzoyl)-10,11-dihydro-5H-pyrrolo[2,1 c][1,4]benzodiazepine-3-carboxylic acid], the “V1a % inhibition at 100 nM” value stood at 13%.

For `O=C(c1ccc2n1Cc1ccccc1N(C(=O)c1ccc(C3CCCCC3)cc1)C2)N1CCN(c2ncccn2)CC1` [Example 23], the IC50 was 635 nM.

As to `O=C(c1ccc2n1Cc1ccccc1N(C(=O)c1ccc(C3CCCCC3)cc1)C2)N1CCC(N2CCCC2)CC1` [Example 25, [10-(4-Cyclohexyl-benzoyl)-10,11-dihydro-5H-pyrrolo[2,1-c][1,4]benzodiazepin-3-yl][4-(1-pyrrolidinyl)-1-piperidinyl]methanone], the IC50 turned out to be 90.4 nM.

Regarding `O=C(c1ccc2n1Cc1ccccc1N(C(=O)c1ccc(C3CCCCC3)cc1)C2)N1CCC(N2CCCCC2)CC1` [Example 26, [1,4′]Bipiperidinyl-1′-yl-[10-(4-cyclohexyl-benzoyl)-10,11-dihydro-5H-pyrrolo[2,1-c][1,4]benzodiazepin-3-yl]-methanone], the IC50 amounted to 200 nM.

With `O=C(c1ccc2n1Cc1ccccc1N(C(=O)c1ccc(C3CCCCC3)cc1)C2)N1CCN(c2ccccn2)CC1` [Example 28, [10-(4-Cyclohexyl-benzoyl)-10,11-dihydro-5H-pyrrolo[2,1-c][1,4]benzodiazepine 3-yl][4-(2-pyridinyl)-1-piperazinyl]-methanone], the IC50 was greater than 1000 nM.

Regarding `COc1ccc(NC(=O)c2ccc3n2Cc2ccccc2N(C(=O)c2ccc(C4CCCCC4)cc2)C3)cc1` [Example 29, 10-(4-Cyclohexyl-benzoyl)-10,11-dihydro-5H-pyrrolo[2,1-c][1,4]benzodiazepine-3-carboxylic acid (4-methoxy-phenyl)-amide], the inhibition at 0.1 µM turned out to be 2%.

As for `O=C(C(=O)N1CCC(N2CCCCC2)CC1)c1ccc2n1Cc1ccccc1N(C(=O)c1ccc(C3CCCCC3)cc1)C2` [Example 31, 1-[1.4′]Bipiperidinyl-1′-yl-2-[10-(4-cyclohexyl-benzoyl)-10,11-dihydro-5H-pyrrolo[2,1-c][1,4]benzodiazepin-3-yl]-ethane-1,2-dione], the “V1a % inhibition at 100 nM” value amounted to 69%.

As to `CN1CCN(C(=O)C(=O)c2ccc3n2Cc2ccccc2N(C(=O)c2ccc(C4CCCCC4)cc2)C3)CC1` [Example 32, 1-[10-(4-Cyclohexyl-benzoyl)-10,11-dihydro-5H-pyrrolo[2,1-c][1,4]benzodiazepin-3-yl]-2-(4-methyl-1-piperazin-1-yl)-1,2-ethane-1,2-dione], the “V1a % inhibition at 100 nM” value came to 56%.

For `CN(C)CCCNC(=O)c1ccc2n1Cc1ccccc1N(C(=O)c1ccc(C3CCCCC3)cc1)C2` [Example 33, 10-(4-Cyclohexyl-benzoyl)-N-[3-(dimethylamino)propyl]-10,11-dihydro-5H-pyrrolo[2,1-c][1,4]benzodiazepine-3-carboxamide], the inhibition at 0.1 µM turned out to be 27%.

In the case of `CN(C)CCN(C)C(=O)c1ccc2n1Cc1ccccc1N(C(=O)c1ccc(C3CCCCC3)cc1)C2` [Example 34, 10-(4-Cyclohexyl-benzoyl)-N-[2-(dimethylamino)-ethyl]-N-methyl-10,11-dihydro-5H-pyrrolo[2,1-c][1,4]benzodiazepine-3-carboxamide], the inhibition at 0.1 µM is 3%.

Regarding `CN(C)CCCN(C)C(=O)c1ccc2n1Cc1ccccc1N(C(=O)c1ccc(C3CCCCC3)cc1)C2` [Example 35, 10-(4-Cyclohexyl-benzoyl)-N-[3-(dimethylamino)propyl]N-methyl-10,11-dihydro-5H-pyrrolo[2,1-c][1,4]benzodiazepine-3-carboxamide], the inhibition at 0.1 µM was found to be 12%.

Turning to `O=C(NCCCn1ccnc1)c1ccc2n1Cc1ccccc1N(C(=O)c1ccc(C3CCCCC3)cc1)C2` [Example 36, 10-(4-Cyclohexyl-benzoyl)-N-[3-(1H-imidazol-1-yl)propyl]-10,11-dihydro-5H-pyrrolo[2,1-c][1,4]benzodiazepine-3-carboxamide], the inhibition at 0.1 µM was 3%.

As for `O=C(NCCN1CCCCC1)c1ccc2n1Cc1ccccc1N(C(=O)c1ccc(C3CCCCC3)cc1)C2` [Example 37, 10-(4-Cyclohexyl-benzoyl)-N-[2-(1-piperidinyl)ethyl]-10,11-dihydro-5H-pyrrolo[2,1-c][1,4]benzodiazepine-3-carboxamide], the inhibition at 0.1 µM turned out to be 23%.

On to `CN1CCCC1CCNC(=O)c1ccc2n1Cc1ccccc1N(C(=O)c1ccc(C3CCCCC3)cc1)C2` (stereo not shown) [Example 38, 10-(4-Cyclohexyl-benzoyl)-N-[2-(1-methyl-2-pyrrolidinyl)ethyl]-10,11-dihydro-5H-pyrrolo[2,1-c][1,4]benzodiazepine-3-carboxamide], for which the inhibition at 0.1 µM is 31%.

Source of the values: patent publication US7202239B2, “Cyclohexylphenyl carboxamides tocolytic oxytocin receptor antagonists” (Wyeth, priority 2001, dated 2007).
